Measured values: ChEMBL document CHEMBL1201862, “PubChem BioAssay data set” (2004)
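Protocol summary: plate cells (96-well), add compound at 5 concentrations, incubate 48 h, interpolate endpoints linearly. Abbreviation: GI50, concentration required for 50% inhibition of growth.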 Activity calls are given as the source filed them. Cut-off read from the data, not from the text of the source: active = GI50 up to about 1.1 µM and inactive = higher.

Key:
Test in all cases: NCI anticancer screen, dose series, 48 h
[1] = system: A549
[2] = system: CAKI-1
[3] = system: EKVX
[4] = system: HCC 2998
[5] = system: HOP-18
[6] = system: HT-29
[7] = system: KM12
[8] = system: LOX IMVI
[9] = system: M14
[10] = system: NCI-H23
[11] = system: NCI-H522
[12] = system: OVCAR-3
[13] = system: SF-268
[14] = system: SK-MEL-5
[15] = system: SNB-19
[16] = system: UO-31

| Structure (SMILES) | GI50 [1] | GI50 [2] | GI50 [3] | GI50 [4] | GI50 [5] | GI50 [6] | GI50 [7] | GI50 [8] | GI50 [9] | GI50 [10] | GI50 [11] | GI50 [12] | GI50 [13] | GI50 [14] | GI50 [15] | GI50 [16] |
| --- | --- | --- | --- | --- | --- | --- | --- | --- | --- | --- | --- | --- | --- | --- | --- | --- |
| COc1c(Cl)c(Cl)c(OC)c2c1C(=O)C=CC2=O | 88.7 µM (inactive) | 22.9 µM (inactive) | 17.4 µM (inactive) | 60.3 µM (inactive) | 44.5 µM (inactive) | 29.9 µM (inactive) | 17.5 µM (inactive) | 15.9 µM (inactive) | 19.6 µM (inactive) | 40.4 µM (inactive) | 17.6 µM (inactive) | 17.3 µM (inactive) | 15.6 µM (inactive) | 34.9 µM (inactive) | 32.1 µM (inactive) | 17.8 µM (inactive) |
| O=C(/C=C/c1ccc(Cl)c(Cl)c1)c1ccc2ccccc2c1 | > 100 µM (inactive) | > 100 µM (inactive) | > 100 µM (inactive) | > 100 µM (inactive) | > 100 µM (inactive) | > 100 µM (inactive) | > 100 µM (inactive) | > 100 µM (inactive) | > 100 µM (inactive) | > 100 µM (inactive) | 88.5 µM (inactive) | > 100 µM (inactive) | > 100 µM (inactive) | > 100 µM (inactive) | > 100 µM (inactive) | > 100 µM (inactive) |
| CCOc1ccc(NC(=O)/C(=C/c2ccccc2)C(C)=O)cc1 | 22.2 µM (inactive) | 11.7 µM (inactive) | 17.8 µM (inactive) | 13.3 µM (inactive) | 12.9 µM (inactive) | 10.3 µM (inactive) | 7.1 µM (inactive) | 7.14 µM (inactive) | 12.3 µM (inactive) | 10.9 µM (inactive) | 2.12 µM (inactive) | 12.5 µM (inactive) | 11.3 µM (inactive) | 12.2 µM (inactive) | 12.1 µM (inactive) | 9.66 µM (inactive) |
| C[N+](C)(C)CC(=O)N/N=C(/C(=O)Nc1ccc(Br)cc1)C1C(=O)NC(=O)NC1=O | > 100 µM (inactive) | > 100 µM (inactive) | > 100 µM (inactive) | > 100 µM (inactive) | > 100 µM (inactive) | > 100 µM (inactive) | > 100 µM (inactive) | > 100 µM (inactive) | > 100 µM (inactive) | > 100 µM (inactive) | > 100 µM (inactive) | > 100 µM (inactive) | > 100 µM (inactive) | > 100 µM (inactive) | > 100 µM (inactive) | > 100 µM (inactive) |
| Cc1cc(C)c([O-])c(-[n+]2c(-c3ccccc3)cc(-c3ccccc3)cc2-c2ccccc2)c1 | 12.6 µM (inactive) | 9.27 µM (inactive) | 8.07 µM (inactive) | 3.51 µM (inactive) | 5.31 µM (inactive) | 2.98 µM (inactive) | 3.21 µM (inactive) | 1.72 µM (inactive) | 5.57 µM (inactive) | 3.53 µM (inactive) |  | 3.67 µM (inactive) | 7.82 µM (inactive) | 1.94 µM (inactive) | 8.89 µM (inactive) | 18.9 µM (inactive) |
| COc1cc2c(cc1C)[n+]([O-])c(C)c(C(=O)C/C(=N/NC(=O)C[N+](C)(C)C)C(=O)Nc1cccc(Cl)c1C)[n+]2[O-] | > 100 µM (inactive) | > 100 µM (inactive) | > 100 µM (inactive) | > 100 µM (inactive) | > 100 µM (inactive) | > 100 µM (inactive) | > 100 µM (inactive) | > 100 µM (inactive) | > 100 µM (inactive) | > 100 µM (inactive) | > 100 µM (inactive) | > 100 µM (inactive) | > 100 µM (inactive) | > 100 µM (inactive) | > 100 µM (inactive) | > 100 µM (inactive) |
| Cc1ccc(C(=O)O/N=C2/CCCC/C2=C\c2ccccc2)cc1 | 19.5 µM (inactive) | 63.2 µM (inactive) | > 100 µM (inactive) | > 100 µM (inactive) | > 100 µM (inactive) | 43.5 µM (inactive) | 73.6 µM (inactive) | 20.1 µM (inactive) | > 100 µM (inactive) | 29.4 µM (inactive) | 16.6 µM (inactive) | 38.1 µM (inactive) | 13.2 µM (inactive) | 37.2 µM (inactive) | > 100 µM (inactive) | 17.7 µM (inactive) |
| Cc1cc(C)c(-n2c(-c3ccccc3)cs/c2=N\N=C2C=C(C(C)(C)C)C(=O)C(C(C)(C)C)=C2)c(C)c1 | > 100 µM (inactive) | > 100 µM (inactive) | 91.4 µM (inactive) | > 100 µM (inactive) | > 100 µM (inactive) | > 100 µM (inactive) | > 100 µM (inactive) | 83.8 µM (inactive) | > 100 µM (inactive) | 60.5 µM (inactive) | 85.1 µM (inactive) | > 100 µM (inactive) | > 100 µM (inactive) | 94 µM (inactive) | > 100 µM (inactive) |  |
| CN(C)/N=N/c1ccccc1 | 68.5 µM (inactive) | > 100 µM (inactive) | > 100 µM (inactive) | 38.1 µM (inactive) | > 100 µM (inactive) | > 100 µM (inactive) | 12.7 µM (inactive) |  | > 100 µM (inactive) | > 100 µM (inactive) | 21.7 µM (inactive) | > 100 µM (inactive) | > 100 µM (inactive) | > 100 µM (inactive) | > 100 µM (inactive) | 26.8 µM (inactive) |
| CC(C)C(=O)/C=C/c1ccc(Cl)c(Cl)c1 | 21 µM (inactive) |  | 23.4 µM (inactive) | 18.8 µM (inactive) | 11.4 µM (inactive) | 19.7 µM (inactive) | 14.8 µM (inactive) |  | 17.5 µM (inactive) | 18.3 µM (inactive) | 13.4 µM (inactive) | 14.5 µM (inactive) | 19.2 µM (inactive) | 14.8 µM (inactive) | 15.1 µM (inactive) | 14.2 µM (inactive) |
| CC(SC(=S)N1CCOCC1)c1cc2oc(=O)n(C)c2cc1Cl (stereo not given) | 42.2 µM (inactive) | > 100 µM (inactive) | > 100 µM (inactive) | > 100 µM (inactive) | > 100 µM (inactive) | > 100 µM (inactive) | > 100 µM (inactive) | 40.9 µM (inactive) | > 100 µM (inactive) | > 100 µM (inactive) |  | > 100 µM (inactive) | > 100 µM (inactive) | 62.7 µM (inactive) | > 100 µM (inactive) | > 100 µM (inactive) |
| CCOC(=O)C(C(O)c1ccc([N+](=O)[O-])cc1)P(=O)(OCC)OCC (stereo not given) | > 100 µM (inactive) | > 100 µM (inactive) | > 100 µM (inactive) | > 100 µM (inactive) | > 100 µM (inactive) | > 100 µM (inactive) | > 100 µM (inactive) | 72.9 µM (inactive) | > 100 µM (inactive) | > 100 µM (inactive) | 29.2 µM (inactive) | > 100 µM (inactive) | > 100 µM (inactive) | 99.8 µM (inactive) | > 100 µM (inactive) |  |
| CN(CCN1C(=O)c2cc([N+](=O)[O-])cc3cc([N+](=O)[O-])cc(c23)C1=O)CCN1C(=O)c2cc([N+](=O)[O-])cc3cc([N+](=O)[O-])cc(c23)C1=O | 0.887 µM (active) | 0.322 µM (active) | 4.26 µM (inactive) | 0.491 µM (active) | 10.6 µM (inactive) | 0.272 µM (active) | 0.681 µM (active) | 0.248 µM (active) | 0.652 µM (active) | 1.74 µM (inactive) | 0.421 µM (active) | 0.646 µM (active) | 0.458 µM (active) | 1.21 µM (inactive) |  | 4.8 µM (inactive) |
| CN(C)C=C1C(=O)N(C)C(=O)N(C)C1=O | > 100 µM (inactive) | > 100 µM (inactive) | > 100 µM (inactive) | > 100 µM (inactive) | > 100 µM (inactive) | > 100 µM (inactive) | > 100 µM (inactive) | > 100 µM (inactive) | > 100 µM (inactive) | > 100 µM (inactive) |  | > 100 µM (inactive) |  | > 100 µM (inactive) | > 100 µM (inactive) | > 100 µM (inactive) |
| C=C1C(=O)OC2C1C(OC(=O)/C(=C/C)COC(C)=O)CC1(CO1)C1C(OC(=O)/C(=C/C)CO)C=C(C)C21 (stereo not given) | 6.9 µM (inactive) | 0.502 µM (active) | 2 µM (inactive) | 1.92 µM (inactive) | 1.34 µM (inactive) | 1.64 µM (inactive) | 3.94 µM (inactive) | 3.19 µM (inactive) | 1.67 µM (inactive) | 1.63 µM (inactive) |  | 1.14 µM (inactive) | 2.75 µM (inactive) | 2.29 µM (inactive) | 3.36 µM (inactive) | 3.14 µM (inactive) |
| Cc1ccc(S(=O)(=O)c2ccc(C)cc2[N+](=O)[O-])cc1 | > 100 µM (inactive) | 95.9 µM (inactive) | > 100 µM (inactive) | > 100 µM (inactive) | > 100 µM (inactive) | > 100 µM (inactive) | > 100 µM (inactive) | 82.8 µM (inactive) | > 100 µM (inactive) | 53.7 µM (inactive) | 43.7 µM (inactive) | 46.9 µM (inactive) | > 100 µM (inactive) | 24.4 µM (inactive) | > 100 µM (inactive) | > 100 µM (inactive) |
| C=C/C=C(\NC(=O)C(Cl)(Cl)Cl)[Si](C)(C)C | > 100 µM (inactive) |  | > 100 µM (inactive) | > 100 µM (inactive) | > 100 µM (inactive) | > 100 µM (inactive) | > 100 µM (inactive) | > 100 µM (inactive) | > 100 µM (inactive) | > 100 µM (inactive) | > 100 µM (inactive) | > 100 µM (inactive) | > 100 µM (inactive) | > 100 µM (inactive) | > 100 µM (inactive) | > 100 µM (inactive) |
